Tests used:
Human GPR120 short form = target: T1, Human GPR120 short form (Homo sapiens, UniProt Q5NUL3); assay: Human GPR120 calcium flux assay, Procedure Calcium B (4200 cells/well); type: cell-based
T1 construct: expressed in transfected cells
T1 sequence (Q5NUL3 1-361): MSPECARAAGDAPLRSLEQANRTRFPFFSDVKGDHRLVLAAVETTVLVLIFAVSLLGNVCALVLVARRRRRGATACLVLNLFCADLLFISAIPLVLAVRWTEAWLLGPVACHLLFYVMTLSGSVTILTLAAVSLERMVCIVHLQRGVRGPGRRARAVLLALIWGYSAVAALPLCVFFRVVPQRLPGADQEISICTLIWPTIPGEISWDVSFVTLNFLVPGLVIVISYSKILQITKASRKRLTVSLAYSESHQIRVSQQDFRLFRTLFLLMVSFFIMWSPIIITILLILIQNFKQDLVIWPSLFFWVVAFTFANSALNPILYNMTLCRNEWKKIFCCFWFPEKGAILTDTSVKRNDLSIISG
Outline: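 HEK293 cells stably expressing human GPR120 (NM_001195755.1), 4200 cells/well, starved 1 h and loaded with Fluo-4 NW plus probenecid. Ligand-evoked calcium flux read on FLIPR for 300 s after a 10 s baseline. RFU = Fmax−Fmin; EC50 from four-parameter concentration-response fit.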

human GPR40 = target: T2, human GPR40 (Homo sapiens, UniProt O14842); assay: GPR40 calcium flux assay, human GPR40; type: cell-based; details: HEK293 cells stably expressing GPR40; table does not say human or rat
T2 construct: expressed in transfected cells
T2 sequence (O14842 whole entry): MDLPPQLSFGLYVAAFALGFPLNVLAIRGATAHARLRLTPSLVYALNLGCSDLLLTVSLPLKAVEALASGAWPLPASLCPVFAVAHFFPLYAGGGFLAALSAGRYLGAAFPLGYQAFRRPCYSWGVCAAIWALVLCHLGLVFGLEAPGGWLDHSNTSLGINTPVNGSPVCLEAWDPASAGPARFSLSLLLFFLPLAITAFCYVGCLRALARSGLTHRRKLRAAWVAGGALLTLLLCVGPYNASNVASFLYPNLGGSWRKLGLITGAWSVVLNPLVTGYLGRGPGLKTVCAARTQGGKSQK
Outline: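 Cells preincubated 1 h at 37° C. in HBSS, 20 mM HEPES, 0.1% BSA, then Fluo 8 calcium dye 30 min at 37° C. and 15 min at room temperature.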

EC50 (Human GPR120 short form) [µM] | EC50 (human GPR40) [µM] | SMILES
3.17 | > 10 | O=C(O)CCc1cc(F)c(OCC2=C(C3CCC(F)(F)CC3)CCC2)c(F)c1 [Compound 419, 3-[4-[[2-(4,4-difluorocyclohexyl)cyclopenten-1-yl]methoxy]-3,5-difluoro-phenyl]Propanoic Acid]
1.19 | 0.023 | O=C(O)CCc1ccc(OCC2=C(C3CC4CCC3C4)CCC2)cc1C(F)(F)F (stereo not shown) [Compound 390, 3-[4-[(2-norbornan-2-ylcyclopenten-1-yl)methoxy]-2-(trifluoromethyl)phenyl]Propanoic Acid]
0.388 | 0.187 | O=C(O)CCc1ccc(OCC2=C(c3ccc(F)cc3)CCC2)cc1C(F)(F)F [Compound 240, 3-[4-[[2-(4-fluorophenyl)cyclopenten-1-yl]methoxy]-2-(trifluoromethyl)phenyl]Propanoic Acid]
> 5 | > 5 | O=C(O)CCc1cc(F)c(OCC2=C(c3ccc(Cl)cc3)CCC2)cc1C(F)(F)F [Compound 91, 3-[4-[[2-(4-chlorophenyl)cyclopenten-1-yl]methoxy]-5-fluoro-2-(trifluoromethyl)phenyl]Propanoic Acid]
0.496 | 0.991 | CCCCC1=C(COc2ccc(CCC(=O)O)cc2)CCC1 [Compound 365]
3.54 | 0.266 | O=C(O)CCc1ccc(OCC2=C(Cc3nccs3)CCC2)cc1Cl [Compound 445, 3-[2-chloro-4-[[2-(thiazol-2-ylmethyl)cyclopenten-1-yl]methoxy]phenyl]Propanoic Acid]
0.356 | > 5 | Cc1cc(CCC(=O)O)cc(F)c1OCC1=C(c2ccc(F)cc2)CCC1 [Compound 227, 3-[3-fluoro-4-[[2-(4-fluorophenyl)cyclopenten-1-yl]methoxy]-5-methyl-phenyl]Propanoic Acid]
0.756 | 0.091 | O=C(O)CCc1ccc(OCC2=C(Cc3ccccc3)CCCC2)cc1C(F)(F)F [Compound 584, 3-[4-[(2-benzylcyclohexen-1-yl)methoxy]-2-(trifluoromethyl)phenyl]Propanoic Acid]
0.195 | 0.579 | O=C(O)CCc1ccc(OCC2=C(c3ccc(Cl)cc3)CC(F)(F)C2)cc1Cl [Compound 251, 3-[2-chloro-4-[[2-(4-chlorophenyl)-4,4-difluoro-cyclopenten-1-yl]methoxy]phenyl]Propanoic Acid]
4.64 | > 5 | O=C(O)CCc1cc(F)c(OCC2=C(c3ccco3)CCC2)c(F)c1 [Compound 209, 3-[3,5-difluoro-4-[[2-(2-furyl)cyclopenten-1-yl]methoxy]phenyl]Propanoic Acid]
1.91 | 0.105 | O=C(O)CCc1ccc(OCC2=C(Cc3ccccc3F)CCC2)cc1C(F)(F)F [Compound 404, 3-[4-[[2-[(2-fluorophenyl)methyl]cyclopenten-1-yl]methoxy]-2-(trifluoromethyl)phenyl]Propanoic Acid]
1.41 | 0.129 | CC(C)CC1=C(COc2ccc(CCC(=O)O)c(Cl)c2)CCC1 [Compound 394, 3-[2-chloro-4-[(2-isobutylcyclopenten-1-yl)methoxy]phenyl]Propanoic Acid]
> 5 | 1.3 | COc1cc(C)ccc1C1=C(COc2ccc(CCC(=O)O)cc2)CCC1 [Compound 255]
0.765 | 0.294 | CCCCC1=C(COc2ccc(CCC(=O)O)c(Cl)c2)CCCC1 [Compound 583, 3-[4-[(2-butylcyclohexen-1-yl)methoxy]-2-chloro-phenyl]Propanoic Acid]
0.335 | 0.046 | O=C(O)CCc1ccc(OCC2=C(C3CCC3)CC(F)(F)C2)cc1Cl [Compound 430, 3-[2-chloro-4-[(2-cyclobutyl-4,4-difluoro-cyclopenten-1-yl)methoxy]phenyl]Propanoic Acid]
0.173 | 0.222 | O=C(O)CCc1ccc(OCC2=C(c3ccccc3)CC(F)(F)C2)cc1C(F)(F)F [Compound 241]
1.53 | 0.448 | COc1ccc(C2=C(COc3ccc(CCC(=O)O)c(C(F)(F)F)c3)CCC2)cc1 [Compound 301, 3-[4-[[2-(4-methoxyphenyl)cyclopenten-1-yl]methoxy]-2-(trifluoromethyl)phenyl]Propanoic Acid]
1.14 | > 5 | Cc1ccc(C2=C(COc3ccc(CCC(=O)O)cc3)CCC2)cc1O [Compound 234]
> 5 | 1.58 | CC(O)c1cc(OCC2=C(C3CCCC3)CCC2)ccc1CCC(=O)O (stereo not shown) [Compound 443, 3-[4-[(2-cyclopentylcyclopenten-1-yl)methoxy]-2-(1-hydroxyethyl)phenyl]Propanoic Acid]
> 5 | 3.34 | Cc1ccc(C2=C(COc3ccc(CCC(=O)O)c(C(F)(F)F)c3)CCC2)c(C(C)C)c1 [Compound 331, 3-[4-[[2-(2-isopropyl-4-methyl-phenyl)cyclopenten-1-yl]methoxy]-2-(trifluoromethyl)phenyl]Propanoic Acid]
1.11 | 0.218 | O=C(O)CCc1ccc(OCC2=C(Cc3cncs3)CCCC2)cc1Cl [Compound 595, 3-[2-chloro-4-[[2-(thiazol-5-ylmethyl)cyclohexen-1-yl]methoxy]phenyl]Propanoic Acid]
0.427 | 0.193 | O=C(O)CCc1ccc(OCC2=C(c3ccc(Br)cc3)CCC2)cc1Cl [Compound 276, 3-[4-[[2-(4-bromophenyl)cyclopenten-1-yl]methoxy]-2-chloro-phenyl]Propanoic Acid]
2.24 | 0.604 | O=C(O)CCc1ccc(OCC2=C(c3ccc(Br)cc3)CCC2)cc1C(F)(F)F [Compound 269, 3-[4-[[2-(4-bromophenyl)cyclopenten-1-yl]methoxy]-2-(trifluoromethyl)phenyl]Propanoic Acid]
0.126 | 0.046 | O=C(O)CCc1ccc(OCC2=C(C3CCCC3)CC(F)(F)C2)cc1F [Compound 457, 3-[4-[(2-cyclopentyl-4,4-difluoro-cyclopenten-1-yl)methoxy]-2-fluoro-phenyl]Propanoic Acid]
> 5 | > 5 | Cc1cc(CCC(=O)O)ccc1OCC1=C(c2ccco2)CC(F)(F)C1 [Compound 232, 3-[4-[[4,4-difluoro-2-(2-furyl)cyclopenten-1-yl]methoxy]-3-methyl-phenyl]Propanoic Acid]
0.256 | 0.048 | O=C(O)CCc1ccc(OCC2=C(C3CCCC3)CCC2)cc1Cl [Compound 428, 3-[2-chloro-4-[(2-cyclopentylcyclopenten-1-yl)methoxy]phenyl]Propanoic Acid]
0.493 | 0.042 | CC(C)C1=C(COc2ccc(CCC(=O)O)c(C(F)(F)F)c2)CCC1 [Compound 377, 3-[4-[(2-isopropylcyclopenten-1-yl)methoxy]-2-(trifluoromethyl)phenyl]Propanoic Acid]
> 5 | 0.923 | N#Cc1cc(OCC2=C(c3ccc(F)cc3)CCC2)ccc1CCC(=O)O [Compound 237, 3-[2-cyano-4-[[2-(4-fluorophenyl)cyclopenten-1-yl]methoxy]phenyl]Propanoic Acid]
0.743 | 0.944 | Cc1ccc(F)c(C2=C(COc3cc(C)c(CCC(=O)O)cc3F)CCC2)c1 [Compound 340, 3-[5-fluoro-4-[[2-(2-fluoro-5-methyl-phenyl)cyclopenten-1-yl]methoxy]-2-methyl-phenyl]Propanoic Acid]

From US11230526B1, “Cylcoalkenyl derivatives useful as agonists of the GPR120 and/or GPR40 receptors” (Janssen Pharmaceutica NV, priority 2018, dated 2022)
